The values that follow come from patent publication US20240398805A1, “QUINAZOLINE DERIVED COMPOUNDS AS EGFR INHIBITORS AND THEIR USES THEREOF” (ACCUTAR BIOTECHNOLOGY INC., priority 2021, published 2024).

Format in all cases: cell-based
In one test the test system is HCC827 cells. As to the kind of experiment: Cell growth inhibition (CellTiter-Glo, 3 days) in HCC827. The conditions noted are these: Homo sapiens, 72 h, 3 days after administration. In short, it runs like this:
(§1)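 Growth inhibition was scored by CellTiter-Glo luminescence after 3-day compound exposure at various concentrations. Cells were plated at 5000/well the day before treatment: A431 in DMEM and HCC827 in RPMI, each with 10% FBS.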
For orientation: In ATP-based viability assays light output follows the ATP content of the culture.

Test [1] has as its system HCC827-ASV cells (human EGFR exon 20 insertion mutant A769_D770insASV). As to the kind of experiment: Cell growth inhibition (CellTiter-Glo, 3 days) in HCC827-ASV. The conditions noted are these: 72 h, 3 days after administration. In outline: (§2)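 Growth inhibition used a CellTiter-Glo luminescence read-out after 3 days of compound exposure at various concentrations. Cells were plated the day before at 5000/well in RPMI plus 10% FBS. The lines are HCC827 transduced by lentivirus with codon-optimized EGFR ASV or ERBB2 YVMA exon 20 insertions.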

Test [2] relates to HCC827-SVD cells (human EGFR exon 20 insertion mutant D770_N771 insSVD). As to the kind of experiment: Cell growth inhibition (CellTiter-Glo, 3 days) in HCC827-SVD. The following applies: 72 h, 3 days after administration. In outline:
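HCC827 cells carrying lentiviral codon-optimized EGFR D770_N771 insSVD, with endogenous EGFR knocked out by CRISPR (single clone), seeded at 5000 cells/well in RPMI with 10% FBS. Viability read by CellTiter-Glo luminescence.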

In another test the test system is A431 cells. As to the kind of experiment: Cell growth inhibition (CellTiter-Glo, 3 days) in A431. The following applies: Homo sapiens, A-431, 72 h, 3 days after administration. In short, it runs like this:
as §1

Test [3] concerns HCC827-YVMA cells (human ERBB2 exon20 insertion mutant A775_G776ins YVMA). As to the kind of experiment: Cell growth inhibition (CellTiter-Glo, 3 days) in HCC827-YVMA. The conditions noted are these: 72 h, 3 days after administration. In short, it runs like this:
as §2

The GI50 is the concentration giving 50% growth inhibition. As to `C=CC(=O)N1CCC(Nc2cc3c(Nc4ccc(Oc5ccnc(-c6nc(C)no6)c5)cc4F)ncnc3cc2OC)CC1` [Compound 191, 1-(4-((4-((2-fluoro-4-((2-(3-methyl-1,2,4-oxadiazol-5-yl)pyridin-4-yl)oxy)phenyl)amino)-7-methoxyquinazolin-6-yl)amino)piperidin-1-yl)prop-2-en-1-one], the concentration for 50% growth inhibition (GI50) with HCC827 cells was 30 to 60 nM; in test [1], below 30 nM; in test [2], below 30 nM; in the test with A431 cells, 300 to 600 nM; in test [3] it was below 30 nM.
With `C=CC(=O)N1CCC(Nc2cc3c(Nc4ccc(Oc5ccnc(-c6nnc(C)o6)c5)cc4F)ncnc3cc2OC)CC1` [Compound 193, 1-(4-((4-((2-fluoro-4-((2-(5-methyl-1,3,4-oxadiazol-2-yl)pyridin-4-yl)oxy)phenyl)amino)-7-methoxyquinazolin-6-yl)amino)piperidin-1-yl)prop-2-en-1-one], the 50% growth inhibitory concentration (GI50) in the test with HCC827 cells was 100 to 300 nM; in test [1] it was below 30 nM; in test [2] it was below 30 nM; in the test with A431 cells, at least 1000 nM; in test [3] it was below 30 nM.
`C=CC(=O)N1CCC(Nc2cc3c(Nc4ccc(Oc5ccnc(CN6CCOCC6)c5)cc4F)ncnc3cc2OC)CC1` [Compound 210, 1-(4-((4-((2-fluoro-4-((2-(morpholinomethyl)pyridin-4-yl)oxy)phenyl)amino)-7-methoxyquinazolin-6-yl)amino)piperidin-1-yl)prop-2-en-1-one]: the GI50 in the test with HCC827 cells was 300 to 600 nM; in test [1] it was 30 to 60 nM; in test [2], 60 to 100 nM; in the test with A431 cells it was 600 to 1000 nM; in test [3], below 30 nM.
The like results for `C=CC(=O)N1CCC(Nc2cc3c(Nc4ccc(Oc5ccnc(-n6cc(C)cn6)c5)cc4F)ncnc3cc2OC)CC1` [Compound 232, 1-(4-((4-((2-fluoro-4-((2-(4-methyl-1H-pyrazol-1-yl)pyridin-4-yl)oxy)phenyl)amino)-7-methoxyquinazolin-6-yl)amino)piperidin-1-yl)prop-2-en-1-one] were, in that order, 60 to 100 nM, below 30 nM, 30 to 60 nM, at least 1000 nM and below 30 nM.
The matching figures for `C=CC(=O)N1CCC(Nc2cc3c(Nc4ccc(Oc5ccnc(-c6ccccc6)c5)cc4F)ncnc3cc2OC)CC1` [Compound 233, 1-(4-((4-((2-fluoro-4-((2-phenylpyridin-4-yl)oxy)phenyl)amino)-7-methoxyquinazolin-6-yl)amino)piperidin-1-yl)prop-2-en-1-one]: 60 to 100 nM, below 30 nM, 30 to 60 nM, at least 1000 nM and below 30 nM.
The like results for `C=CC(=O)N1CCC(Nc2cc3c(Nc4ccc(Oc5ccnc(NC6CCC6)c5)cc4F)ncnc3cc2OC)CC1` [Compound 243, 1-(4-((4-((4-((2-(cyclobutylamino)pyridin-4-yl)oxy)-2-fluorophenyl)amino)-7-methoxyquinazolin-6-yl)amino)piperidin-1-yl)prop-2-en-1-one] were, in that order, 30 to 60 nM, below 30 nM, below 30 nM, 300 to 600 nM and below 30 nM.
On to `C=CC(=O)N1CCC(Nc2cc3c(Nc4ccc(Oc5ccnc(N6C[C@H](OC)[C@H](OC)C6)n5)cc4F)ncnc3cc2OC)CC1` [Compound 260, 1-(4-((4-((4-((2-((3R,4S)-3,4-dimethoxypyrrolidin-1-yl)pyrimidin-4-yl)oxy)-2-fluorophenyl)amino)-7-methoxyquinazolin-6-yl)amino)piperidin-1-yl)prop-2-en-1-one], for which the GI50 in the test with HCC827 cells was 100 to 300 nM; in test [1], below 30 nM; in test [2], below 30 nM; in the test with A431 cells it was at least 1000 nM; in test [3], below 30 nM.
Consider `C=CC(=O)N1CCC(Nc2cc3c(Nc4ccc(Oc5ccn(-c6cc(F)c(C)cn6)n5)c(Cl)c4)ncnc3cc2OC)CC1` [Example 17, 1-(4-((4-((3-chloro-4-((1-(4-fluoro-5-methylpyridin-2-yl)-1H-pyrazol-3-yl)oxy)phenyl)amino)-7-methoxyquinazolin-6-yl)amino)piperidin-1-yl)prop-2-en-1-one], for which the concentration for 50% growth inhibition (GI50) in the test on HCC827 cells lay in the range of 60 to 100 nM; in test [1], 600 to 1000 nM; in test [2], 100 to 300 nM; in the test on A431 cells, 100 to 300 nM; in test [3] it was 600 to 1000 nM.
With `C=CC(=O)N1CCC(Nc2cc3c(Nc4ccc(Oc5ccn(-c6ccc(C)nc6)n5)cc4F)ncnc3cc2OCC)CC1` [Example 18, 1-(4-((7-ethoxy-4-((2-fluoro-4-((1-(6-methylpyridin-3-yl)-1H-pyrazol-3-yl)oxy)phenyl)amino)quinazolin-6-yl)amino)piperidin-1-yl)prop-2-en-1-one], the GI50 is below 30 nM in the test with HCC827 cells; below 30 nM in test [1]; below 30 nM in test [2]; 100 to 300 nM with A431 cells; below 30 nM in test [3].
Consider `C=CC(=O)N1CCC(Nc2cc3c(Nc4cc(Cl)c(Oc5ccn(-c6cnc(C)c(F)c6)n5)cc4F)ncnc3cc2OC)CC1` [Example 19, 1-(4-((4-((5-chloro-2-fluoro-4-((1-(5-fluoro-6-methylpyridin-3-yl)-1H-pyrazol-3-yl)oxy)phenyl)amino)-7-methoxyquinazolin-6-yl)amino)piperidin-1-yl)prop-2-en-1-one], for which the 50% growth inhibitory concentration (GI50) with HCC827 cells was below 30 nM; in test [1] it was 30 to 60 nM; in test [2], 30 to 60 nM; in the test with A431 cells, 100 to 300 nM; in test [3] it was 60 to 100 nM.
Consider `C=CC(=O)N1CCC(Nc2cc3c(Nc4ccc(Oc5ccn(-c6cnc(C)c(F)c6)n5)c(Cl)c4)ncnc3cc2OC)CC1` [Example 20, 1-(4-((4-((3-chloro-4-((1-(5-fluoro-6-methylpyridin-3-yl)-1H-pyrazol-3-yl)oxy)phenyl)amino)-7-methoxyquinazolin-6-yl)amino)piperidin-1-yl)prop-2-en-1-one], for which the 50% growth inhibitory concentration (GI50) in the test with HCC827 cells was in the range of 30 to 60 nM; in test [1], 60 to 100 nM; in test [2], 100 to 300 nM; in the test on A431 cells, 100 to 300 nM; in test [3], 100 to 300 nM.
Consider `C=C(F)C(=O)N1CCC(Nc2cc3c(Nc4ccc(Oc5ccn(-c6cnc(C)c(F)c6)n5)cc4F)ncnc3cc2OC)CC1` [Example 23, 2-fluoro-1-(4-((4-((2-fluoro-4-((1-(5-fluoro-6-methylpyridin-3-yl)-1H-pyrazol-3-yl)oxy)phenyl)amino)-7-methoxyquinazolin-6-yl)amino)piperidin-1-yl)prop-2-en-1-one], for which the GI50 was at least 1000 nM in the test on HCC827 cells; at least 1000 nM in test [1]; at least 1000 nM in test [2]; at least 1000 nM with A431 cells; 600 to 1000 nM in test [3].
With `CC#CC(=O)N1CCC(Nc2cc3c(Nc4ccc(Oc5ccn(-c6cnc(C)c(F)c6)n5)cc4F)ncnc3cc2OC)CC1` [Example 24, 1-(4-((4-((2-fluoro-4-((1-(5-fluoro-6-methylpyridin-3-yl)-1H-pyrazol-3-yl)oxy)phenyl)amino)-7-methoxyquinazolin-6-yl)amino)piperidin-1-yl)but-2-yn-1-one], the concentration for 50% growth inhibition (GI50) (in the test on HCC827 cells; in test [1]; in test [2]; in the test on A431 cells; in test [3]) was at least 1000 nM each time.
For the compound `C=C(F)C(=O)N1CCC(Nc2cc3c(Nc4ccc(Oc5ccn(-c6ccc(C)nc6)n5)cc4F)ncnc3cc2OC)CC1` [Example 25, 2-fluoro-1-(4-((4-((2-fluoro-4-((1-(6-methylpyridin-3-yl)-1H-pyrazol-3-yl)oxy)phenyl)amino)-7-methoxyquinazolin-6-yl)amino)piperidin-1-yl)prop-2-en-1-one], the GI50 (with HCC827 cells; in test [1]; in test [2]; in the test with A431 cells; in test [3]) was at least 1000 nM each time.
For the compound `C=CC(=O)N1CCC(Nc2cc3c(Nc4ccc(Oc5nc(-c6ccnn6C)cs5)cc4F)ncnc3cc2OC)CC1` [Example 26, 1-(4-((4-((2-fluoro-4-((4-(1-methyl-1H-pyrazol-5-yl)thiazol-2-yl)oxy)phenyl)amino)-7-methoxyquinazolin-6-yl)amino)piperidin-1-yl)prop-2-en-1-one], the GI50 in the test on HCC827 cells fell in the range of 60 to 100 nM; in test [1], 30 to 60 nM; in test [2], 30 to 60 nM; with A431 cells, 100 to 300 nM; in test [3] it was 30 to 60 nM.
On to `C=CC(=O)N1CCC(Nc2cc3c(Nc4ccc(Oc5ccnc(-c6ccc(C)nc6)c5)cc4F)ncnc3cc2OC)CC1` [Example 27, 1-(4-((4-((2-fluoro-4-((6′-methyl-[2,3′-bipyridin]-4-yl)oxy)phenyl)amino)-7-methoxyquinazolin-6-yl)amino)piperidin-1-yl)prop-2-en-1-one], for which the GI50 in the test on HCC827 cells is 100 to 300 nM; in test [1], 30 to 60 nM; in test [2] it was 60 to 100 nM; with A431 cells it was at least 1000 nM; in test [3], 60 to 100 nM.
For `C=CC(=O)N1CCC(Nc2cc3c(Nc4ccc(Oc5nc(-c6cnc(OCC)nc6)cs5)cc4F)ncnc3cc2OC)CC1` [Example 28, 1-(4-((4-((4-((4-(2-ethoxypyrimidin-5-yl)thiazol-2-yl)oxy)-2-fluorophenyl)amino)-7-methoxyquinazolin-6-yl)amino)piperidin-1-yl)prop-2-en-1-one], the concentration for 50% growth inhibition (GI50) with HCC827 cells was 100 to 300 nM; in test [1] it was below 30 nM; in test [2], 30 to 60 nM; in the test with A431 cells, 100 to 300 nM; in test [3] it was 30 to 60 nM.
